Test: Cytotoxicity against human HL60 cells assessed as cell growth inhibition after 72 hrs by MTT assay
Type: functional, cell-based
Settings: HL-60, 72 h

Row | SMILES | IC50 [µM]
1 | C[C@@H]1CCC=C2CC[C@]3(C[C@]21C)O[C@]3(C)CO | 57.7
2 | COc1cc([C@@H]2c3cc4c(cc3[C@@H](O[C@@H]3O[C@@H]5CO[C@@H](C)O[C@H]5[C@H](O)[C@H]3O)[C@H]3COC(=O)[C@H]23)OCO4)cc(OC)c1O [ETOPOSIDE] | 0.3

— ChEMBL document CHEMBL3867456, “Vetiverianines A, B, and C: Sesquiterpenoids from Vetiveria zizanioides Roots” (J Nat Prod, 2016)
